The numbers were not newly measured in patent publication US8202842B2, “Inhibition of cholera toxins by galatooligosaccharides (GOS)” (priority 2006, dated 2012), which cites them from elsewhere.

The subject of data set [1] is uropathogenic Escherichia coli. The conditions noted are these: soluble, monovalent.
Another data set concerns the target cholera toxin (Vibrio cholerae serotype O1, UniProt P01556). The conditions noted are these: rabbit, in vivo.

Chain of cholera toxin (P01556 whole entry, looked up): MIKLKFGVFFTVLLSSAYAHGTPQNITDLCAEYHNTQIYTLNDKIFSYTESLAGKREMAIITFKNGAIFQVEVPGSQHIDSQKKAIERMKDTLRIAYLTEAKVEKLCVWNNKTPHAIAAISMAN

`OC[C@H]1O[C@H](O[C@@H]2[C@H](O)[C@@H](O)[C@H](O[C@H]3[C@H](O)[C@@H](O)C(O)O[C@@H]3CO)O[C@@H]2CO)[C@H](O)[C@@H](O)[C@H]1O` (some centres unmarked) [globotriose]: in data set [1], the “Interference with attachment and colonization of uropathogenic Escherichia coli” value was “interfere with attachment and colonization”.
On to 3-sialyllactose, for which the “Inhibition of fluid accumulation induced by cholera toxin” value on cholera toxin is recorded as “inhibitor of fluid accumulation”.
